The nature of series [1]: Cytotoxicity against human HOS cells. Format: cell-based.
Series [2] concerns the target C-X-C chemokine receptor type 4 (Homo sapiens) (UniProt P61073). Kind of series: Antagonist activity at CXCR4. The class given is functional.
In series [3] the test system is Human immunodeficiency virus 1. Kind of series: Antiviral activity against HIV1 3B infected human HOS cells expressing human CXCR4 and CD4 assessed as inhibition of viral infection by luciferase reporter gene assay. Format: functional, organism-based. Conditions: Human immunodeficiency virus 1, 3B. For orientation: In a reporter assay the amount or activity of a reporter protein is the signal.

In series [4] the test system is Human immunodeficiency virus 1. Kind of series: Antiviral activity against HIV1 3B infected human HOS cells expressing human CXCR4 and CD4 assessed as inhibition of viral infection in presence of human serum albumin and alpha-acid glycoprotein by luciferase reporter gene assay. The class given is functional. Also noted: unit not given here.
Series [5] in a line: Volume of distribution at steady state in rat at 1 mg/kg, iv. The class given is ADME, organism-based. Also noted: dose 1 mg/kg, route intravenous. As to conditions: in vivo, read-out: Vdss.
Series [6] in a line: Oral bioavailability in rat at 3 mg/kg. The class given is ADME, organism-based. As to conditions: in vivo.
The nature of series [7]: Half life in rat at 1 mg/kg, iv. Format: ADME, organism-based. The arrangement: dose 1 mg/kg, route intravenous. Conditions: in vivo.
The nature of series [8]: Clearance in rat at 1 mg/kg, iv. The class given is ADME, organism-based. The arrangement: dose 1 mg/kg, route intravenous. Conditions: in vivo.
Series [9] in a line: Half life in Beagle dog at 1 mg/kg, iv. Format: ADME, organism-based, Canis lupus familiaris. The arrangement: dose 1 mg/kg, route intravenous. As to conditions: in vivo.
A short description of series [10]: Clearance in cynomolgus monkey at 1 mg/kg, iv. The class given is ADME, organism-based, Macaca fascicularis. Also noted: dose 1 mg/kg, route intravenous. Conditions: in vivo.
A short description of series [11]: Volume of distribution at steady state in cynomolgus monkey at 1 mg/kg, iv. The arrangement: dose 1 mg/kg, route intravenous. Format: ADME, organism-based, Macaca fascicularis. Conditions: in vivo, read-out: Vdss.
A short description of series [12]: Volume of distribution at steady state in Beagle dog at 1 mg/kg, iv. The class given is ADME, organism-based, Canis lupus familiaris. The arrangement: dose 1 mg/kg, route intravenous. As to conditions: in vivo, read-out: Vdss.
The nature of series [13]: Oral bioavailability in Beagle dog at 3 mg/kg. The class given is ADME, organism-based, Canis lupus familiaris. Conditions: in vivo.
Series [14] in a line: Clearance in Beagle dog at 1 mg/kg, iv. Also noted: dose 1 mg/kg, route intravenous. As to conditions: in vivo. The class given is ADME, organism-based, Canis lupus familiaris.
A short description of series [15]: Oral bioavailability in cynomolgus monkey at 3 mg/kg. The class given is ADME, organism-based, Macaca fascicularis. Conditions: in vivo.
Series [16] is described as follows: Half life in cynomolgus monkey at 1 mg/kg, iv. The class given is ADME, organism-based, Macaca fascicularis. The arrangement: dose 1 mg/kg, route intravenous. As to conditions: in vivo.

pIC50: −log10 of the molar value. Activity calls are given as the source filed them.

Chain of C-X-C chemokine receptor type 4 (Homo sapiens) (P61073 whole entry): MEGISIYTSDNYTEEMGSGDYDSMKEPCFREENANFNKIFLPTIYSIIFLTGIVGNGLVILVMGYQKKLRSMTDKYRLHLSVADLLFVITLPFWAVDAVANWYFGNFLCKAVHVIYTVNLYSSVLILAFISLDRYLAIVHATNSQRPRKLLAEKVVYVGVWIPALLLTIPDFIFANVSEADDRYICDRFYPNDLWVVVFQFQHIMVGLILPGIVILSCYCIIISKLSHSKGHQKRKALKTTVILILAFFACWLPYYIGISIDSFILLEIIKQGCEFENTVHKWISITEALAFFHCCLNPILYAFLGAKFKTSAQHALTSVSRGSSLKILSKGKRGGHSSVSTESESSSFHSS

A word on the CC50: it is the concentration at which the toxic effect on the cells reaches its halfway point. The pIC50 is −log10 of the IC50, conventionally taken in molar units. `CN(Cc1cn2c(N3CCN4CCCC4C3)cccc2n1)[C@H]1CCCc2cccnc21` (some centres undefined) showed a CC50 in series [1] of 3900 nM. Besides, in series [2], the outcome was Active. The pIC50 in series [3] is 8.40.
With `CN1CCC(N(C)c2cccc3nc(CN(C)[C@H]4CCCc5cccnc54)cn23)CC1`, the CC50 in series [1] is 12500 nM. Also, the result in [2] was Active. For the same compound, the pIC50 in [3] was 7.31.
Consider `CN1CCN(c2cccc3nc(CN(Cc4ccccc4)[C@H]4CCCc5cccnc54)cn23)CC1`, for which half-maximal cytotoxicity in series [1] (CC50) was put at 9300 nM. The outcome in series [2] was Active. For the same compound, the pIC50 in [3] was 7.55.
In the case of `CN(C)[C@@H]1CCN(c2cccc3nc(CN(C)[C@H]4CCCc5cccnc54)cn23)C1`, half-maximal cytotoxicity in [1] (CC50) was put at 4900 nM. The result in series [2] was Active. The pIC50 in [3] is 7.37. Also, the Activity in series [4] was 5.
For `CCN(Cc1cn2c(N3CCN(C)CC3)cccc2n1)[C@H]1CCCc2cccnc21`, the CC50 in series [1] turned out to be 8100 nM. In series [2], the outcome was Active. Besides, the pIC50 in series [3] was 8.70. For the same compound, the Activity in series [4] stood at 1.5.
In the case of `CCCCN(Cc1cn2c(N3CCN(C)CC3)cccc2n1)[C@H]1CCCc2cccnc21`, in [1], the midpoint of cytotoxicity, the CC50, lay at 5300 nM. In series [2], the outcome was Active. The pIC50 in [3] was 8.52.
Taken in the same sequence, the figures for `CC(C)CN(Cc1cn2c(N3CCN(C)CC3)cccc2n1)[C@H]1CCCc2cccnc21` were 20000 nM, “Active” and 7.64.
`CN1CCN(c2cccn3cc(CN(C)[C@H]4CCCc5cccnc54)nc23)CC1` came in with a CC50 in series [1] of over 5000 nM. In addition, the result in series [2] was Active. Moreover, the pIC50 in series [3] is 6.19.
Regarding `CC(C)N(Cc1cn2c(N3CCN(C)CC3)cccc2n1)[C@H]1CCCc2cccnc21`, in series [1], the midpoint of cytotoxicity, the CC50, lay at 8900 nM. Further, the result in series [2] was Active. In addition, the pIC50 in series [3] is 8.30. Further, in series [4], the Activity stood at 5.
The bioavailability is the share of a dose that reaches the circulation, judged against a reference dose that is usually intravenous. By half-life is commonly meant the time needed for the level to fall by half in the phase considered. One may read the clearance as the rate of elimination divided by the concentration. `CN1CCN(c2cccc3nc(CN(CC4CC4)[C@H]4CCCc5cccnc54)cn23)CC1`: the Vd in series [5] worked out at 6 L/kg. The compound further registered a bioavailability in series [6] of 31%. The compound also came in with a CC50 in series [1] of 8000 nM. Moreover, in series [2], the result was Active. Also, the pIC50 in series [3] is 8.40. The half-life in [7] was 8.8 h. Also, in series [8], the clearance is 9.9 mL/min/kg. Also, in series [4], the Activity is listed as 6.
Take `CN(C)C1CCN(c2cccc3nc(CN(C)[C@H]4CCCc5cccnc54)cn23)CC1`: the Vd in [5] is 5.1 L/kg. The bioavailability in [6] stood at 7%. Also, the CC50 in [1] was 3400 nM. Further, the outcome in [2] was Active. The pIC50 in series [3] is 8.40. The half-life in [7] is 10 h. In series [8], this compound came in with a clearance of 5.7 mL/min/kg. The Activity in series [4] stood at 8.
For the compound `CN1CCN(c2cccc3nc(CN(C)[C@H]4CCCc5cccnc54)cn23)CC1`, the Vd worked out at 4.9 L/kg in series [5], 3.7 L/kg in [11] and 8.5 L/kg in series [12]. Also, the half-life is 7.6 h in series [9], 5.5 h in [7] and 10 h in series [16]. For the same compound, the bioavailability in series [6] turned out to be 11%; in [13] it was 13%; in series [15] it was 10%. Moreover, the midpoint of cytotoxicity in series [1], the CC50, lay at 4500 nM. Besides, the clearance worked out at 6 mL/min/kg in [10], 18 mL/min/kg in [14] and 14 mL/min/kg in [8]. For the same compound, the outcome in series [2] was Active. For the same compound, the pIC50 in series [3] is 8.70. Moreover, in [4], the Activity is recorded as 1.5.
Turning to `CN(Cc1cn2c(N3CCC(N)CC3)cccc2n1)[C@H]1CCCc2cccnc21`, in series [1], the CC50 was determined as 6300 nM. Further, in series [2], the result was Active. For the same compound, the pIC50 in [3] was 8.40.
The corresponding values for `CN1CCN(c2cccc3nc(CN(C)[C@@H]4CCCc5cccnc54)cn23)CC1` are 12600 nM, “Active” and 7.08.
In the case of `CN(C)[C@H]1CCN(c2cccc3nc(CN(C)[C@H]4CCCc5cccnc54)cn23)C1`, the Vd in series [5] worked out at 4.5 L/kg. In series [6], this compound displayed a bioavailability of 2%. This compound came in with a CC50 in [1] of 2100 nM. Moreover, in series [2], the result was Active. Also, in series [3], the negative-log IC50 (pIC50) was 8.10. This compound gave a half-life in [7] of 7.9 h. Besides, the clearance in series [8] stood at 9.5 mL/min/kg. Also, the Activity in [4] is on record as 3.
As to `CCN1CCN(c2cccc3nc(CN(C)[C@H]4CCCc5cccnc54)cn23)CC1`, the CC50 in series [1] came out at 3900 nM. Moreover, in series [2], the result was Active. Moreover, the pIC50 in series [3] was 8.40. In series [4], the Activity is on record as 10.
On to `CCCN(Cc1cn2c(N3CCN(C)CC3)cccc2n1)[C@H]1CCCc2cccnc21`, for which the Vd in [5] worked out at 6.2 L/kg. Further, the bioavailability in series [6] came to 41%. In [1], the CC50 amounted to 6700 nM. For the same compound, in series [2], the outcome was Active. The pIC50 in series [3] is 8.52. In series [7], this compound gave a half-life of 10.7 h. The clearance in series [8] came to 8.9 mL/min/kg. The Activity in series [4] is recorded as 5.
`CN(Cc1cn2c(N3CCOCC3)cccc2n1)C1CCCc2cccnc21` (racemic) gave a CC50 in series [1] of over 10000 nM. Moreover, the outcome in series [2] was Active. The pIC50 in series [3] is 6.16.
For `CC(C)N1CCN(c2cccc3nc(CN(C)[C@H]4CCCc5cccnc54)cn23)CC1`, in series [5], the Vd amounted to 10.6 L/kg. This compound also yielded a bioavailability in series [6] of 29%. In addition, half-maximal cytotoxicity in [1] (CC50) was put at 7100 nM. The outcome in series [2] was Active. Further, in [3], the pIC50 is 8.52. The half-life in [7] is 3.9 h. The clearance in [8] was 31 mL/min/kg. Besides, the Activity in series [4] was 3.3.
For `CN1CCN(c2cccc3nc(CN(CC(F)(F)F)C4CCCc5cccnc54)cn23)CC1` (racemic), in [1], the CC50 was over 5000 nM. The outcome in series [2] was Active. Also, in series [3], the pIC50 was 6.90.
On to `CN1CCN(c2cccc3nc(CN(C)[C@H]4CCCc5cccnc54)[nH]c23)CC1`, for which, in series [1], the CC50 was over 5000 nM. Besides, the result in series [2] was Active. Also, the Activity in series [4] is 80.
The compound `CN1CCC(N(C)c2cccc3nc(CN(C)[C@H]4CCCc5cccnc54)cn23)C1` (some centres undefined) registered a CC50 in series [1] of 10800 nM. Also, in series [2], the result was Active. In addition, the pIC50 in [3] was 7.52. Moreover, the Activity in series [4] was determined as 1.3.

The values are drawn from ChEMBL document CHEMBL1156094, “Imidazopyridine-5,6,7,8-tetrahydro-8-quinolinamine derivatives with potent activity against HIV-1” (Bioorg Med Chem Lett, 2009).
